Results on eleven compounds are retold here after ChEMBL document CHEMBL3600330, “Synthesis and biological evaluation of novel piperidine-benzodioxole derivatives designed as potential leishmanicidal drug candidates” (Bioorg Med Chem Lett, 2015).

The nature of data set [1]: (§1) Cytotoxicity against human PBMC assessed as cell viability after 48 hrs by MTT reduction assay. The following applies: PBMC (peripheral blood mononuclear cells). It counts as cell-based. (In general: Tetrazolium dyes change colour on reduction, which living cells bring about.)
The test system of data set [2] is Leishmania amazonensis. Put plainly: Leishmanicidal activity against promastigote form of Leishmania amazonensis assessed as inhibition of parasite growth after 72 hrs by Neubauer's chamber method. It counts as functional, organism-based.
Data set [3] in a line: Selectivity ratio of CC50 for human PBMC to IC50 for promastigote form of Leishmania amazonensis.
In data set [4] the test system is PBMC. The description is as §1. It counts as cell-based. The following applies: pbmc, 48 h.
Data set [5] deals with Leishmania amazonensis. Put plainly: Leishmanicidal activity against promastigote form of Leishmania amazonensis […] assessed as inhibition of parasite growth after 48 hrs by Neubauer's chamber method. The format is functional, organism-based.

The term CC50 denotes the concentration at which the toxic effect on the cells reaches its halfway point. The term IC50 denotes the concentration at which inhibition is half-maximal. As to `O=C(OCC1CCN(Cc2ccc3c(c2)OCO3)CC1)c1ccccc1`, the half-maximal cytotoxic concentration (CC50) at 48 h in data set [1] was determined as 306 µM. Besides, in data set [2], the IC50 turned out to be 78.3 µM. Besides, the “Ratio CC50/IC50” value in data set [3] was 3.9.
Take `O=C(OCC1CCN(Cc2ccc3c(c2)OCO3)CC1)c1ccc(Br)cc1`: in data set [1], the CC50 at 48 h was 208 µM. In data set [2], the IC50 came out at 38.3 µM. In addition, in data set [3], the “Ratio CC50/IC50” value is recorded as 5.43.
In the case of `O=C(OCC1CCN(Cc2ccc3c(c2)OCO3)CC1)c1ccc(F)cc1`, the half-maximal cytotoxic concentration (CC50) at 48 h in data set [1] came out at 420 µM. In addition, the IC50 in data set [2] came out at 57.4 µM. Also, the “Ratio CC50/IC50” value in data set [3] is listed as 7.33.
For the compound `O=C(OCC1CCN(Cc2ccc3c(c2)OCO3)CC1)c1ccc2c(c1)OCO2`, in data set [1], the CC50 at 48 h was 362 µM. Moreover, the IC50 in data set [2] was 28.1 µM. Also, in data set [3], the “Ratio CC50/IC50” value worked out at 12.88.
Consider `O=C(OCC1CCN(Cc2ccc3c(c2)OCO3)CC1)c1ccc(Cl)cc1`, for which the CC50 result in data set [4] is given as “Non-toxic”. For the same compound, the IC50 in data set [2] was greater than 103 µM.
In the case of `O=C(/C=C/c1ccc2c(c1)OCO2)OCC1CCN(Cc2ccc3c(c2)OCO3)CC1`, the cytotoxic concentration (CC50) at 48 h in data set [1] was 950 µM. Further, the IC50 in data set [2] is greater than 94.5 µM. Further, in data set [3], the “Ratio CC50/IC50” value is less than 10.06.
As for `O=C(OCC1CCN(Cc2ccc3c(c2)OCO3)CC1)c1ccc([N+](=O)[O-])cc1`, the CC50 at 48 h in data set [1] stood at 356 µM. The IC50 in data set [2] was found to be 17.2 µM. For the same compound, the “Ratio CC50/IC50” value in data set [3] was determined as 20.64.
Turning to `COc1ccc(C(=O)OCC2CCN(Cc3ccc4c(c3)OCO4)CC2)cc1OC`, the CC50 at 48 h in data set [1] stood at 1720 µM. Besides, the IC50 in data set [2] came out at 43.2 µM. Also, the “Ratio CC50/IC50” value in data set [3] turned out to be 39.76.
Turning to `CCCCCCNC(=O)OCC1CCN(Cc2ccc3c(c2)OCO3)CC1`, in data set [1], the CC50 at 48 h amounted to 143 µM. In addition, the IC50 in data set [2] was determined as 28.6 µM. Besides, the “Ratio CC50/IC50” value in data set [3] worked out at 5.
Turning to `CCNC(=O)OCC1CCN(Cc2ccc3c(c2)OCO3)CC1`, the CC50 at 48 h in data set [1] is 2430 µM. The IC50 in data set [2] is greater than 125 µM. In addition, the “Ratio CC50/IC50” value in data set [3] is recorded as less than 19.48.
Regarding `O=C(/C=C/C=C/c1ccc2c(c1)OCO2)N1CCCCC1` [PIPERINE], in data set [5], the IC50 is 14.5 µM.
